Reference: US6642222B2, “Pyrano, piperidino, and thiopyrano compounds and methods of use” (Abbott Laboratories, priority 1998, dated 2003)
Where a name gives a salt, the structure may show the parent alone.

Key:
Landrace Pig Bladder = experiment: Functional potassium channel opening activity in isolated bladder strips (field-stimulated twitch); details: for Index: ED50 for P1075 divided by ED50 for the test agonist, averaged over tissues; for Emax / EC50: Sus scrofa; for EC50: read-out: pD2 (converted)
Experimental: Compounds were evaluated for functional potassium channel opening activity using tissue strips obtained from Landrace pig bladders. Landrace pig bladders were obtained from female Landrace pigs of 9-30 kg. Landrace pigs were euthanized with an intraperitoneal injection of pentobarbital solution, Somlethal®, J. A. Webster Inc. Sterling Mass. The entire bladder was removed and immediately placed into Krebs Ringer bicarbonate solution (composition, mM: NaCl, 120; […] Dextrose, 4.7; […] Propranolol (0.004 mM) was included in all of the assays to block β-adrenoceptors. The trigonal and dome portions were […], Strips 3-5 […] (mm) wide and 20 mm long were prepared from the remaining tissue cut in a circular fashion. The mucosal layer was removed. One end was fixed to a stationary glass rod and the other to a Grass FT03 transducer at a basal preload of 1.0 g. Two parallel platinum electrodes were included in the stationary glass trod to provide field stimulation of 0.05 Hz, 0.5 milli-seconds at 20 volts. […] Tissues were allowed to equilibrate for at least 60 minutes and primed with 80 mM KCl. A control concentration response curve (cumulative) was generated for each tissue using the potassium channel opener […] as the control agonist. […] After a 60 minute rinsing period, a concentration response curve (cumulative) was generated for the test agonist in the same fashion as that used for the control agonist […]. The maximal efficacy of each compounds (expressed as % relative to […]) is reported. The amount of agent necessary to cause 50% of the agent's maximal response (ED50) was calculated using “ALLFIT” (DeLean et al., Am. J. […] Agonist potencies were also expressed as an index relative to […]. The index was calculated by dividing the ED50 for […] by the ED50 for the test agonist in a given tissue. Each tissue was used for only one test agonist, and the indices obtained from each tissue were averaged to provide an average index of potency.

[1] = test system: Guinea-Pig Bladder (GPB) Cells; experiment: Membrane Hyperpolarization (MHP) assay, DiBAC(4)3 / FLIPR; details: for EC50: membrane hyperpolarization, GPB cells; for Emax: read-out: Maximal Response (% P1075), maximal steady-state hyperpolarization, normalized to 10 μM P1075 (100%); for Maximal Response (% P1075): maximal steady-state hyperpolarization, normalized to 10 μM P1075 (100%)
[2] = maximal efficacy relative to P1075, field stimulated bladder strips

Structure (SMILES)	EC50 ([1]; Cavia porcellus) [nM]	Emax ([1]; Cavia porcellus) [%]	EC50 [1] [nM]	also measured
O=C1COCC2=C1[C@@H](c1ccc(F)c(Br)c1)C1=C(COC1=O)N2 (single isomer, unassigned) [Example 42]	26	102	–	Index (Landrace Pig Bladder): 0.17; Emax (Landrace Pig Bladder; [2]): 95%; EC50 (Landrace Pig Bladder; negative logarithm of ED50): 631 nM
O=C1COCC2=C1[C@H](c1ccc(F)c(Br)c1)C1=C(COC1=O)N2 (single isomer, unassigned) [Example 43]	11	98	–	Index (Landrace Pig Bladder): 0.68; Emax (Landrace Pig Bladder; [2]): 88%; EC50 (Landrace Pig Bladder; negative logarithm of ED50): 200 nM
O=C1COCC2=C1[C@H](c1ccc(F)c(I)c1)C1=C(COC1=O)N2 (single isomer, unassigned) [Example 78]	4.9	97	–	Index (Landrace Pig Bladder): 0.79; Emax (Landrace Pig Bladder; [2]): 96%; EC50 (Landrace Pig Bladder; negative logarithm of ED50): 79.4 nM
O=C1COCC2=C1[C@@H](c1ccc(F)c(I)c1)C1=C(COC1=O)N2 (single isomer, unassigned) [Example 79]	14	90	–	Index (Landrace Pig Bladder): 0.40; Emax (Landrace Pig Bladder; [2]): 95%; EC50 (Landrace Pig Bladder; negative logarithm of ED50): 158 nM
Cc1ccc([C@H]2C3=C(COCC3=O)NC3=C2C(=O)OC3)cc1Br (single isomer, unassigned) [Example 81]	–	–	–	Index (Landrace Pig Bladder): 0.23; Emax (Landrace Pig Bladder; [2]): 93%; EC50 (Landrace Pig Bladder; negative logarithm of ED50): 398 nM
Cc1ccc(C2C3=C(COCC3=O)NC3=C2C(=O)OC3)cc1I (single isomer, unassigned) [Example 82, 9-(3-iodo-4-methylphenyl)-5,9-dihydro-3H-furo [3,4-b]pyrano[4,3-e]pyridine-1,8(4H,7H)-dione]	–	–	–	Index (Landrace Pig Bladder): 1.4; Emax (Landrace Pig Bladder; [2]): 98%; EC50 (Landrace Pig Bladder; negative logarithm of ED50): 31.6 nM
Cl.O=C1CCC2=C1C(c1ccc(F)c(Br)c1)C1=C(CNCC1=O)N2 (single isomer, unassigned; (+)) [Example 6, (+)-5-(3-bromo-4-fluorophenyl)-2,3,5,7,8,9-hexahydro-1H-cyclopenta[b][1,7]naphthyridine-4,6-dione Hydrochloride]	1000	83	–	Index (Landrace Pig Bladder; Hydrochloride): 0.022; Emax (Landrace Pig Bladder; [2]): 100%; EC50 (Landrace Pig Bladder; negative logarithm of ED50): 3980 nM
Cl.O=C1CCCC2=C1C(c1ccc(F)c(Br)c1)C1=C(CNCC1=O)N2 (single isomer, unassigned; (+)) [Example 8, (+)-5-(3-bromo-4-fluorophenyl)-2,3,5,8,9,10-hexahydrobenzo[b][1,7]naphthyridine-4,6(1H, 7H)-dione Hydrochloride]	–	–	–	Index (Landrace Pig Bladder; Hydrochloride): 0.023; Efficacy (% P1075) (Landrace Pig Bladder; maximal efficacy relative to P1075, field stimulated bladder strips, Hydrochloride): 90 % P1075; pD2 (Landrace Pig Bladder; negative logarithm of ED50, Hydrochloride): 5.2; Maximal Response (% P1075) ([1]; Hydrochloride): 33 % P1075; EC50 ([1]; Hydrochloride): 5000 nM
N#Cc1cccc(C2C3=C(COCC3=O)NC3=C2S(=O)(=O)CC3)c1 (single isomer, unassigned; (-)) [Example 16, (−) 9-(3-cyanophenyl)-2,3,5,9-tetrahydro-4H-pyrano [3,4-b]thieno[2,3-e]pyridin-8(7H)-one 1,1-dioxide]	–	–	8800	Maximal Response (% P1075) [1]: 57 % P1075
O=C1CNCC2=C1C(c1ccc(F)c(Br)c1)C1=C(CNCC1=O)N2 [Example 4, 5-(3-bromo-4-fluorophenyl)-2,3,5,8,9,10-hexahydropyrido [3,4-b][1,7]naphthyridine-4,6(1H,7H)-dione Dihydrochloride]	–	21	–	–
N#Cc1cccc(C2C3=C(COCC3=O)NC3=C2S(=O)(=O)CC3)c1 (stereo not shown) [Example 14, 9-(3-cyanophenyl)-2,3,5,9-tetrahydro-4H-pyrano[3,4-b]thieno[2,3-e]pyridin-8(7H)-one 1,1-dioxide]	–	–	400	Maximal Response (% P1075) [1]: 99 % P1075
O=C1COCC2=C1C(c1ccc(Cl)c([N+](=O)[O-])c1)C1=C(CCS1(=O)=O)N2 (stereo not shown) [Example 17, 9-(4-chloro-3-nitrophenyl)-2,3,5,9-tetrahydro-4H-pyrano[3,4-b]thieno[2,3-e]pyridin-8(7H)-one 1,1-dioxide]	–	93	4.2	–
O=C1COCC2=C1C(c1ccc(F)c(Br)c1)C1=C(CCCS1(=O)=O)N2 (stereo not shown) [Example 21, 10-(3-bromo-4-fluorophenyl)-3,4,6,10-tetrahadro-2H,5H-pyrano[3,4-b]thioyrano[2,3-e]pyridin-9(8H)-one 1,1-dioxide]	–	–	66	Maximal Response (% P1075) [1]: 79 % P1075
O=C1CCC2=C1C(c1ccc(F)c(Br)c1)C1=C(COCC1=O)N2 (stereo not shown) [Example 23, 5-(3-bromo-4-fluorophenyl)-5,7,8,9-tetrahydrocyclopenta [b]pyrano[4,3-e]pyridine-4,6(1H,3H)-dione]	40	82	–	–
O=C1COCC2=C1C(c1ccc(F)c(Br)c1)C1=C(COC1=O)N2 (stereo not shown) [Example 25, 9-(3-bromo-4-fluorophenyl)-5,9-dihydro-3H-furo [3,4-b]pyrano[4,3-e]pyridine-1,8(4H,7H)-dione]	9.8	106	–	–
CN1CC2=C(C1=O)C(c1ccc(F)c(Br)c1)C1=C(COCC1=O)N2 (stereo not shown) [Example 26, 9-(3-bromo-4-fluorophenyl)-2-methyl-2,3,5,9-tetrahydropyrano[3,4-b]pyrrolo[3,4-e]pyridine-1,8(4H,7H)-dione]	13	90	–	–
O=C1COCC2=C1C(c1ccc(F)c(Cl)c1)C1=C(CCNC1=O)N2 (stereo not shown) [Example 44, 10-(3-chloro-4-fluorophenyl)-3,4,6,10-tetrahydro-2H-pyrano [3,4-b][1,6]naphthyridine-1,9(5H,8H)-dione]	–	96	–	–
O=C1COCC2=C1C(c1ccc(Cl)c(Cl)c1)C1=C(CCNC1=O)N2 (stereo not shown) [Example 45, 10-(3,4-dichlorophenyl)-3,4,6,10-tetrahydro-2H-pyrano [3,4-b][1,6]naphthyridine-1,9(5H,8H)-dione]	200	85	–	–
O=C1COCC2=C1C(c1ccc(Cl)c(C(F)(F)F)c1)C1=C(CCNC1=O)N2 (stereo not shown) [Example 46, 10-[4-chloro-3-(trifluoromethyl)phenyl]-3,4,6,10-tetrahydro-2H-pyrano[3,4-b][1,6]naphthyridine-1,9(5H,8H)-dione]	340	83	–	–
O=C1COCC2=C1C(c1ccc(Cl)c([N+](=O)[O-])c1)C1=C(CCNC1=O)N2 (stereo not shown) [Example 47, 10-(4-chloro-3-nitrophenyl)-3,4,6,10-tetrahydro-2H-pyrano[3,4-b][1,6]naphthyridine-1,9(5H,8H)-dione]	490	91	–	–
O=C1COCC2=C1C(c1ccc(Br)c(Br)c1)C1=C(CCNC1=O)N2 (stereo not shown) [Example 48, 10-(3,4-dibromophenyl)-3,4,6,10-tetrahydro-2H-pyrano[3,4-b][1,6]naphthyridine-1,9(5H,8H)-dione]	84	91	–	–
O=C1COCC2=C1C(c1csc([N+](=O)[O-])c1)C1=C(CCNC1=O)N2 (stereo not shown) [Example 49, 10-(5-nitro-3-thienyl)-3,4,6,10-tetrahydro-2H-pyrano [3,4-b][1,6]naphthyridine-1,9(5H,8H)-dione]	2300	85	–	–
O=C1CCC2=C1C(c1ccc(F)c(Br)c1)C1=C(CSCC1=O)N2 (stereo not shown) [Example 51, 5-(3-bromo-4-fluorophenol)-5,7,8,9-tetrahydrocyclopenta [b]thiopyrano[4,3-e]pyridine-4,6(1H,3H)-dione]	–	–	120	Maximal Response (% P1075) [1]: 88 % P1075
O=C1COCC2=C1C(c1ccc(Cl)c(C(F)(F)F)c1)C1=C(COCC1=O)N2 [Example 56, 5-[4-chloro-3-(trifluoromethyl)phenyl]-5,10-dihydro-1H, 3H-dipyrano[3,4-b:4,3-e]pyridine-4,6(7H,9H)-dione]	–	–	15	Maximal Response (% P1075) [1]: 96 % P1075
O=C1COCC2=C1C(c1ccc(Br)c(Cl)c1)C1=C(COCC1=O)N2 [Example 60, 5-(4-bromo-3-chlorophenyl)-5,10-dihydro-1H,3H-dipyrano[3,4-b:4,3-e]pyridine-4,6(7H,9H)-dione]	–	–	23	Maximal Response (% P1075) [1]: 88 % P1075
O=C1COCC2=C1C(c1ccc(Cl)c(Br)c1)C1=C(COCC1=O)N2 [Example 61, 5-(3-bromo-4-chlorophenyl)-5,10-dihydro-1H,3H-dipyrano[3,4-b:4,3-e]pyridine-4,6(7H,9H)-dione]	–	–	6.3	Maximal Response (% P1075) [1]: 97 % P1075
O=C1COCC2=C1C(c1ccc(C(F)(F)F)c(I)c1)C1=C(COCC1=O)N2 [Example 62, 5-[3-iodo-4-(trifluoromethyl)phenyl]-5,10-dihydro-1H,3H-dipyrano[3,4-b:4,3-e]pyridine-4,6(7H,9H)-dione]	–	–	58	Maximal Response (% P1075) [1]: 77 % P1075
CCC(C)(C)N=C(NC#N)Nc1cccnc1 [Example P1075, reference compound]	–	–	–	stimulated twitch (Landrace Pig Bladder; control agonist, 10^−9 to 10^−5 M, dose dependent): completely eliminated the stimulated twitch
